Reference: article PMC7614683, “A small molecule PI3Kα activator for cardioprotection and neuroregeneration” (Nature, 2023)

Tests used:
[1] = target: T1, human p110α/p85α (PI3Kα) (Homo sapiens, UniProt P42336); assay: ADP-Glo in vitro lipid kinase assay, PI3Kα; type: biochemical; conditions: for Maximum activity relative to 1938 / Maximum activity relative to pY control: SI Table 3; for EC50: SI Table 3, 1938 analogues, read-out: EC50; for reduction in activity: relative to 1938
T1 construct: Full-length human p110α was expressed either in a complex with full-length human p85α (for HTS, biochemistry and HDX-MS); 6xHis tag followed by TEV protease site (N); host or cells: Spodoptera frugiperda Sf9, baculovirus
T1 sequence (P42336 whole entry): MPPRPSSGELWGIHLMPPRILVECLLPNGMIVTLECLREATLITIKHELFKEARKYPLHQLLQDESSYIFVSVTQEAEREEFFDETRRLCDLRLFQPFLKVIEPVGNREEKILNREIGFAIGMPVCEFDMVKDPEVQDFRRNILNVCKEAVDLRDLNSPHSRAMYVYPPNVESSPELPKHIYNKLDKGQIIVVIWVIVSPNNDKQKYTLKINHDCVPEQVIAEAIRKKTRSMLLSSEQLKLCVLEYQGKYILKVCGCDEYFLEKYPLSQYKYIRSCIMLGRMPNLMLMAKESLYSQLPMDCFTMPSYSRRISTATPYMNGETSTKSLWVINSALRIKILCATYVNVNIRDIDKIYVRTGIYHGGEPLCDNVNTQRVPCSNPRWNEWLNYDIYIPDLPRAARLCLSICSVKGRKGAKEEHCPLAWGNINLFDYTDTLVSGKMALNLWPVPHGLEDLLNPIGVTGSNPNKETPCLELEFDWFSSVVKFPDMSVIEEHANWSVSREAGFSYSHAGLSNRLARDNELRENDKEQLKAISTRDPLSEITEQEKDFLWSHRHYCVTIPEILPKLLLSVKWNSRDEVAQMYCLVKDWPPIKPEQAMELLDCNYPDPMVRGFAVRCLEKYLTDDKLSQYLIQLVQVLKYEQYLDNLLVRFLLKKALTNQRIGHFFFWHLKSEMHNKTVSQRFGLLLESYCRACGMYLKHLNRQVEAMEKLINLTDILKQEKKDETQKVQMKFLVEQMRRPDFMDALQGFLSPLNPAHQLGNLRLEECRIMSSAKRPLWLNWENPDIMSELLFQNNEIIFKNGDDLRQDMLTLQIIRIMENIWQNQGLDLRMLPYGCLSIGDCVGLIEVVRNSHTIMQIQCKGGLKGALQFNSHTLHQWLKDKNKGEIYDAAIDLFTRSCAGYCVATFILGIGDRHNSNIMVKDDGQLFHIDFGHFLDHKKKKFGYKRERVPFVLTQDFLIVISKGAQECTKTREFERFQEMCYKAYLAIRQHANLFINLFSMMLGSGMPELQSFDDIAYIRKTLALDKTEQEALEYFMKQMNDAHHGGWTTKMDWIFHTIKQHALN
T1 sequence (P27986 whole entry partner): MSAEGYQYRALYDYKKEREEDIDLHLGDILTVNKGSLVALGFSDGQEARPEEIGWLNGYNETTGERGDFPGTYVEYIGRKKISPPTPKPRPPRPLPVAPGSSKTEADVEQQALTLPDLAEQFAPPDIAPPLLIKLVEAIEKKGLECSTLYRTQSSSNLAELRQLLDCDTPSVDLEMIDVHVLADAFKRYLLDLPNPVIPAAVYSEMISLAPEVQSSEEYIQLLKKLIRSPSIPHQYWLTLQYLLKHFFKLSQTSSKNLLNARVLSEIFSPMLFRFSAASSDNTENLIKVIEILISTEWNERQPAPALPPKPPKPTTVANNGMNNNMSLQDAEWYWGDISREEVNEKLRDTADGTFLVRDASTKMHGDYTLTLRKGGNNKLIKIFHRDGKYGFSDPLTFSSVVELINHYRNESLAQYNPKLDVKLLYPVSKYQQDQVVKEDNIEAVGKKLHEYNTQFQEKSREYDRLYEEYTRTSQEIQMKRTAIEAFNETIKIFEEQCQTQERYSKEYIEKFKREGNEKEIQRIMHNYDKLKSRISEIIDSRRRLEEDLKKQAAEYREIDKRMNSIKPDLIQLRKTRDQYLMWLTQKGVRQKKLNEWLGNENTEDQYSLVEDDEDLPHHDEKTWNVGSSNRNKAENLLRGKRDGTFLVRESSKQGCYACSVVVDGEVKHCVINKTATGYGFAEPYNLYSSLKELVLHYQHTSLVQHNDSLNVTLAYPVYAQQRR
Protocol: Kinase reactions were performed with ADP-Glo kinase assay kit (Promega Corporation). The enzyme, substrate and compounds were diluted in reaction buffer (20 mM HEPES, 50 mM NaCl, 50 mM KCl, 3 mM MgCl2, 1 mM EGTA, 1 mM TCEP, pH 7.4). Final concentrations of PI3Kα and PI3Kδ used were 25 nM and 50 nM for PI3Kβ. Liposomes (5% brain PI(4,5)P2, 20% brain phosphatidylserine, 45% brain phosphatidylethanolamine, 15% brain phosphatidylcholine, 10% cholesterol, 5% sphingomyelin (Avanti Polar Lipids)) were used at a final concentration of 1 mg/ml.
For the HTS, the reaction mixture contained 0.75 μl enzyme, 15 nl compound and/or pY and 0.75 μl of liposome substrate mixed with ATP. […] (GL Biochem, Shanghai Ltd). ATP was used at a final concentration of 500 μM unless otherwise stated. The final DMSO concentration in the assay was 1%. The experiments were performed at room temperature for 3 h using 1536-well white-polystyrene plates (Corning #3729) before addition of 2 μl of ADP-Glo R1 to terminate the reaction. The plate was incubated for 40 min, followed by addition of 4 μl of ADP-Glo R2 and incubated further for 60 min in the dark. Luminescence was read using an EnVision (PerkinElmer) plate reader. All analyses were performed using Genedata Screener.
For re-screening of HTS hits and routine compound profiling, the reaction mixture contained 2 μl PI3K enzyme, 2 μl compound and/or pY and 2 μl of liposome substrate mixed with ATP. ATP was used at a final concentration of 500 μM for PI3Kα and PI3Kβ and at 200 μM for PI3Kδ, unless otherwise stated. The final DMSO concentration in the assay was 1%. The experiments were performed at room temperature for 3 h using 384 white-polystyrene plates (Corning #3824) before addition of 6 μl of ADP-Glo R1 to terminate the reaction. The plate was incubated for 45 min, followed by addition of 12 μl of ADP-Glo R2 and incubated further for 60 min in the dark. Luminescence was read using a Sense (Hidex) plate reader. […] All analyses were performed using GraphPad Prism 7.
For characterisation of the effects of 1938 on in vitro PI3K enzymology, all reactions were performed at room temperature with 384 white-polystyrene plates (Corning #3574). The final DMSO concentration in the assay was between 0.5%-1.8%. The reaction mixture contained 2 μl PI3K enzyme, 2 μl compound and/or pY and 2 μl of liposome substrate mixed with ATP. ATP was used at a final concentration of 200 μM, unless otherwise stated.

[2] = system: PI3Kα-KO MEFs; assay: pAKT S473 western blot, PI3Kα-KO MEFs; type: cell-based, mouse; conditions: TGX-221 0.2 μM
Protocol: Unless otherwise indicated, western blotting was performed with ECL detection. For time course studies, A549 cells were seeded at 250,000 cells per well in 6-well plates in RPMI (10% FBS + 1 mM Na-Pyruvate + 1% P/S) and allowed to adhere overnight. The next day they were serum-starved for 4 h prior to treatment with 100 nM insulin or 5 μM 1938, for the indicated time (5 min to 48 h) at 37°C, 5% CO2. For 1938 titration assays in MEFs, cells were seeded at 150,000 cells per well in 6-well plates and allowed to adhere overnight. The next day they were serum-starved for 4 h prior to treatment with insulin (1 μM), 1938 (0.2 to 30 μM, final DMSO concentration of 1.5%) or inhibitors (final DMSO concentration of ≤1.5%) for 15 min at 37°C, 5% CO2. Cells were washed twice with cold PBS and lysed using cold RIPA buffer (25 mM Tris.HCl pH 7.6, 150 mM NaCl, 1% NP-40, 1% sodium deoxycholate, 0.1% SDS supplemented with protease/phosphatase inhibitor cocktail from Merck). To remove cell debris, homogenates were spun at 13,000 rpm for 15 min at 4°C and the supernatant fraction recovered. Protein concentration was determined by colorimetric assay (BCA assay, Promega). Protein extracts were resolved by SDS-PAGE, transferred to nitrocellulose membranes, and incubated overnight at 4°C with specific antibodies as follows: anti-vinculin (Sigma #V9131) and the following antibodies from Cell Signaling Technology (CST): pAKT-S473 (CST #9271), pS6-S240/244 (CST #2215), pPRAS40-T246 (CST #2640) and total S6 (CST #2317). Primary ntibodies were used at 1:1000 dilution except anti-vinculin (1:10000). Secondary antibodies are also from Cell Signalling Technology: Anti rabbit IgG, HRP linked Antibody (CST #7074S), Anti mouse IgG, HRP linked Antibody (CST #7076S). Raw and uncropped blots are shown in Supplementary Fig. 1.

[3] = system: A549 cells; assay: Phosphoinositide quantification by mass spectrometry, A549; type: cell-based, human; conditions: A549, 2 min
Protocol: (§1) A549 cells (5.10^5) or wild-type MEFs (3.10^5) were plated in complete media onto 3.5 cm dishes or 60 mm dishes respectively for 24 h, prior to FCS-free starvation media for 16 h. MEFs, in addition, were supplemented with arachidonic acid in the FCS-free starvation media as previously described. […] Reactions were terminated in 600 μl ice-cold 1 M HCl and cells scraped and resuspended, then divided into two equal samples in eppendorfs. […] The data are shown as response ratios, calculated by normalizing the multiple reaction monitoring (MRM)-targeted lipid integrated response area to that of a known amount of relevant internal standard. To account for any cell input variability, PIP3 response ratios were normalized to C38:4-PI response ratios; while PI(3,4)P2 response ratios were normalised to PI(4,5)P2 response ratios. Data shown are mean ±SD for n ≥3, except for non-DMSO control in MEF PIP3 measurements where n=1.

[4] = system: MEFs; assay: Phosphoinositide quantification by mass spectrometry, MEFs; type: cell-based, mouse; conditions: 1938 at 5 μM, PDGF 20 ng/ml 2 min
Protocol: as §1

| Compound | Maximum activity relative to 1938 [1] [%] | Maximum activity relative to pY control [1] [%] | also measured |
| --- | --- | --- | --- |
| COc1cc(Nc2cc(Nc3cccc4c3N(C(C)=O)CC4)ccn2)cc(OC)c1OC [Compound 1887] | 80 |  | EC50 [1]: 36 ± 5 µM |
| COc1cc(N2CCN(C)CC2)ccc1Nc1cc(Nc2cccc3c2N(C(C)=O)CC3)ccn1 [Compound 1889] | 102 |  | EC50 [1]: 56 ± 24 µM |
| CC(=O)N1CCc2cccc(Nc3ccnc(Nc4ccccc4)c3)c21 [Compound 2016] | 9 | 36 ± 8 |  |
| CCN1CCN(c2ccc(Nc3cc(Nc4ccncn4)ccn3)cc2)CC1 [Compound 2106] | 4 | 14 ± 13 | reduction in activity [1]: > 95% |
| CCN1CCN(c2ccc(Nc3nccc(Nc4cccc5c4N(C(C)=O)CC5)n3)cc2)CC1 [Compound 2152] | 4 | 16 ± 8 | reduction in activity [1]: > 95% |
| Cc1cc(C(C)Nc2ccccc2)c2nc(N3CCOCC3)cc(=O)n2c1 (stereo not drawn) [TGX-221, reference compound] |  |  | effect on insulin-stimulated pAKT^S473 [2]: sensitivity of insulin-stimulated pAKT^S473 |
| PDGF |  |  | PIP3 response [3]: no PIP3 induced; PI(3,4)P2 signal by mass spectrometry [4]: detected |
